Test results taken from patent US5371070A, “Bicyclic GnRH antagonists and a method for regulating the secretion of gonadotropins” (The Salk Institute for Biological Studies, priority 1992, dated 1994).
Positions of bridges follow the written chain, without caps; N, C: chain ends. Non-standard residues stand in square brackets, D forms with d. Residues, ends and D or L forms follow the SMILES beside them. Phe(4-Cl) = N[C@@H](Cc1ccc(Cl)cc1)C(=O)O; dPhe(4-Cl) = N[C@H](Cc1ccc(Cl)cc1)C(=O)O; 2Nal = N[C@@H](Cc1ccc2ccccc2c1)C(=O)O; d2Nal = N[C@H](Cc1ccc2ccccc2c1)C(=O)O; d3Pal = N[C@H](Cc1cccnc1)C(=O)O; Orn = NCCC[C@H](N)C(=O)O; Dab = NCC[C@H](N)C(=O)O; Dap = NC[C@H](N)C(=O)O; βAla = NCCC(=O)O; Sar = CNCC(=O)O

System: ovulation in mature female Sprague-Dawley rats
Assay: rat anti-ovulation assay (in vivo)
Conditions: for Rats Ovulating: injected about noon on day of proestrus, rats ovulating/rats treated
Text: These improved bicyclic GnRH antagonists are generally characterized by a substantial ability to suppress the secretion of LH in a standard rat pituitary cell assay when administered together with a concentration of 3 nanomolar GnRH, the details of which assay are set forth in Rivier and Vale, Life Sciences, 23, 869-876 (1978). By substantial ability is meant that, at a concentration of GnRH antagonist to GnRH of about 2/1 or less, the amount of LH secreted is reduced by 50% (IDR50). Moreover, when tested in vivo in the standard rat anti-ovulation assay (Corbin et al. Endocrine Res. Commun., 2, 1 (1975)), these GnRH antagonists show complete blockage of ovulation when administered at about 200 μg or less per kilogram of body weight.
In vivo testing determines effectiveness to prevent ovulation in female rats. In this test, a specified number of mature female Sprague-Dawley rats, e.g. usually five to ten, each having a body weight from about 225 to 250 grams, is injected with a specified microgram dosage of peptide in either saline or bacteriostatic water at about noon on the day of proestrus. Proestrus is the afternoon […]. A separate female rat group is used as a control to which the peptide is not administered. Each of the control female rats ovulates on the evening of proestrus, and the number of the treated rats which ovulate is recorded. The results are set forth in the following Table A, wherein the dosages stated are in micrograms per rat.

| SMILES | Rats Ovulating (dosage 10 micrograms per rat) | Rats Ovulating (dosage 2.5 micrograms per rat) | Rats Ovulating (dosage 5 micrograms per rat) | also measured |
| --- | --- | --- | --- | --- |
| CC(=O)N[C@H](Cc1ccc2ccccc2c1)C(=O)N[C@H](Cc1ccc(Cl)cc1)C(=O)N[C@H](Cc1cccnc1)C(=O)N[C@H]1CC(=O)NC[C@@H](C(N)=O)NC(=O)[C@@H]2CCCN2C(=O)[C@@H]2CCNC(=O)[C@H](Cc3ccccc3)NC(=O)C[C@H](NC1=O)C(=O)N[C@H](CCCNC(=N)N)C(=O)N[C@@H](CC(C)C)C(=O)N2 [Peptide 9] (Ac-[d2Nal][dPhe(4-Cl)][d3Pal]DD[dR]L[Dab]P[Dap]-NH2; lactam 4-10; linker 5-8 via F) | 0/4 |  |  |  |
| CC(=O)N[C@H](Cc1ccc2ccccc2c1)C(=O)N[C@H](Cc1ccc(Cl)cc1)C(=O)N[C@H](Cc1cccnc1)C(=O)N[C@H]1CC(=O)NC[C@@H](C(N)=O)NC(=O)[C@@H]2CCCN2C(=O)[C@@H]2CCNC(=O)[C@H](Cc3ccccc3)NC(=O)CC[C@H](NC1=O)C(=O)N[C@H](CCCNC(=N)N)C(=O)N[C@@H](CC(C)C)C(=O)N2 [Peptide 7] (Ac-[d2Nal][dPhe(4-Cl)][d3Pal]DE[dR]L[Dab]P[Dap]-NH2; lactam 4-10; linker 5-8 via F) | 0/9 | 3/10 | 1/8 | Rats Ovulating (dosage 1.0 micrograms per rat): 4/7 |
| CC(=O)N[C@H](Cc1ccc2ccccc2c1)C(=O)N[C@H](Cc1ccc(Cl)cc1)C(=O)N[C@H](Cc1cccnc1)C(=O)N[C@H]1CC(=O)NC[C@@H](C(N)=O)NC(=O)[C@@H]2CCCN2C(=O)[C@@H]2CCNC(=O)[C@H](CCCNC(=N)N)NC(=O)CC[C@H](NC1=O)C(=O)N[C@H](CCCNC(=N)N)C(=O)N[C@@H](CC(C)C)C(=O)N2 [Peptide 1, (Cyclo 4-10,5,5'-8)[Ac-β-D-2NAL^1, (4Cl)D--Phe^2, D-3PAL^3, Asp^4, Glu^5 (Arg), D--Arg^6, Dbu^8, Dpr^10]-GnRH] (Ac-[d2Nal][dPhe(4-Cl)][d3Pal]DE[dR]L[Dab]P[Dap]-NH2; lactam 4-10; linker 5-8 via R) |  | 0/4 |  | effectiveness to prevent ovulation of female rats (at a very low dosage): significantly effective; Rats Ovulating (dosage 1.0 micrograms per rat): 2/11; dose considered totally effective to prevent ovulation (female rats): about 50 micrograms per Kg of body weight; dose at which it should likely be effective to prevent ovulation (female rats, stated as likely): about 5 μg/Kg |
| CC(=O)N[C@H](Cc1ccc2ccccc2c1)C(=O)N[C@H](Cc1ccc(Cl)cc1)C(=O)N[C@H](Cc1cccnc1)C(=O)N[C@H]1CC(=O)NC[C@@H](C(N)=O)NC(=O)[C@@H]2CCCN2C(=O)[C@@H]2CCNC(=O)CN(C)C(=O)CC[C@H](NC1=O)C(=O)N[C@H](CCCNC(=N)N)C(=O)N[C@@H](CC(C)C)C(=O)N2 [Peptide 5] (Ac-[d2Nal][dPhe(4-Cl)][d3Pal]DE[dR]L[Dab]P[Dap]-NH2; lactam 4-10; linker 5-8 via Sar) | 4/9 |  |  |  |
| CC(=O)N[C@H](Cc1ccc2ccccc2c1)C(=O)N[C@H](Cc1ccc(Cl)cc1)C(=O)N[C@H](Cc1cccnc1)C(=O)N[C@H]1CC(=O)NC[C@@H](C(N)=O)NC(=O)[C@@H]2CCCN2C(=O)[C@@H]2CCNC(=O)CNC(=O)C[C@H](NC1=O)C(=O)N[C@H](CCCNC(=N)N)C(=O)N[C@@H](CC(C)C)C(=O)N2 [Peptide 3] (Ac-[d2Nal][dPhe(4-Cl)][d3Pal]DD[dR]L[Dab]P[Dap]-NH2; lactam 4-10; linker 5-8 via G) | 4/6 |  |  | Rats Ovulating (dosage 25 micrograms per rat): 0/5 |
| CC(=O)N[C@H](Cc1ccc2ccccc2c1)C(=O)N[C@H](Cc1ccc(Cl)cc1)C(=O)N[C@H](Cc1cccnc1)C(=O)N[C@H]1CC(=O)NC[C@@H](C(N)=O)NC(=O)[C@@H]2CCCN2C(=O)[C@@H]2CCNC(=O)[C@H](Cc3ccc(Cl)cc3)NC(=O)CC[C@H](NC1=O)C(=O)N[C@H](CCCNC(=N)N)C(=O)N[C@@H](CC(C)C)C(=O)N2 [Peptide 14] (Ac-[d2Nal][dPhe(4-Cl)][d3Pal]DE[dR]L[Dab]P[Dap]-NH2; lactam 4-10; linker 5-8 via Phe(4-Cl)) |  | 3/4 | 0/6 |  |
| CC(=O)N[C@H](Cc1ccc2ccccc2c1)C(=O)N[C@H](Cc1ccc(Cl)cc1)C(=O)N[C@H](Cc1cccnc1)C(=O)N[C@H]1CC(=O)NC[C@@H](C(N)=O)NC(=O)[C@@H]2CCCN2C(=O)[C@@H]2CCNC(=O)CNC(=O)CC[C@H](NC1=O)C(=O)N[C@H](CCCNC(=N)N)C(=O)N[C@@H](CC(C)C)C(=O)N2 [Peptide 2] (Ac-[d2Nal][dPhe(4-Cl)][d3Pal]DE[dR]L[Dab]P[Dap]-NH2; lactam 4-10; linker 5-8 via G) | 1/6 | 6/8 | 2/8 | Rats Ovulating (dosage 25 micrograms per rat): 0/3 |
| CC(=O)N[C@H](Cc1ccc2ccccc2c1)C(=O)N[C@H](Cc1ccc(Cl)cc1)C(=O)N[C@H](Cc1cccnc1)C(=O)N[C@H]1CC(=O)NC[C@@H](C(N)=O)NC(=O)[C@@H]2CCCN2C(=O)[C@@H]2CNC(=O)[C@H](Cc3ccccc3)NC(=O)CC[C@H](NC1=O)C(=O)N[C@H](CCCNC(=N)N)C(=O)N[C@@H](CC(C)C)C(=O)N2 [Peptide 6] (Ac-[d2Nal][dPhe(4-Cl)][d3Pal]DE[dR]L[Dap]P[Dap]-NH2; lactam 4-10; linker 5-8 via F) | 6/8 |  |  |  |
| CC(=O)N[C@H](Cc1ccc2ccccc2c1)C(=O)N[C@H](Cc1ccc(Cl)cc1)C(=O)N[C@H](Cc1cccnc1)C(=O)N[C@H]1CC(=O)NC[C@@H](C(N)=O)NC(=O)[C@@H]2CCCN2C(=O)[C@@H]2CCNC(=O)CCNC(=O)C[C@H](NC1=O)C(=O)N[C@H](CCCNC(=N)N)C(=O)N[C@@H](CC(C)C)C(=O)N2 [Peptide 4] (Ac-[d2Nal][dPhe(4-Cl)][d3Pal]DD[dR]L[Dab]P[Dap]-NH2; lactam 4-10; linker 5-8 via βAla) | 4/5 | 9/14 | 7/10 |  |
| CC(=O)N[C@H](Cc1ccc2ccccc2c1)C(=O)N[C@H](Cc1ccc(Cl)cc1)C(=O)N[C@H](Cc1cccnc1)C(=O)N[C@H]1CC(=O)NC[C@@H](C(N)=O)NC(=O)[C@@H]2CCCN2C(=O)[C@@H]2CCNC(=O)[C@H](Cc3c[nH]cn3)NC(=O)CC[C@H](NC1=O)C(=O)N[C@H](CCCNC(=N)N)C(=O)N[C@@H](CC(C)C)C(=O)N2 [Peptide 12] (Ac-[d2Nal][dPhe(4-Cl)][d3Pal]DE[dR]L[Dab]P[Dap]-NH2; lactam 4-10; linker 5-8 via H) |  | 3/8 |  | Rats Ovulating (dosage 1.0 micrograms per rat): 4/4 |
| CC(=O)N[C@H](Cc1ccc2ccccc2c1)C(=O)N[C@H](Cc1ccc(Cl)cc1)C(=O)N[C@H](Cc1cccnc1)C(=O)N[C@H]1CC(=O)NC[C@@H](C(N)=O)NC(=O)[C@@H]2CCCN2C(=O)[C@@H]2CCNC(=O)[C@H](Cc3ccc4ccccc4c3)NC(=O)CC[C@H](NC1=O)C(=O)N[C@H](CCCNC(=N)N)C(=O)N[C@@H](CC(C)C)C(=O)N2 [Peptide 11] (Ac-[d2Nal][dPhe(4-Cl)][d3Pal]DE[dR]L[Dab]P[Dap]-NH2; lactam 4-10; linker 5-8 via 2Nal) | 0/4 |  | 1/7 |  |
| CC(=O)N[C@H](Cc1ccc2ccccc2c1)C(=O)N[C@H](Cc1ccc(Cl)cc1)C(=O)N[C@H](Cc1cccnc1)C(=O)N[C@H]1CC(=O)NC[C@@H](C(N)=O)NC(=O)[C@@H]2CCCN2C(=O)[C@@H]2CCCNC(=O)[C@H](Cc3ccccc3)NC(=O)C[C@H](NC1=O)C(=O)N[C@H](CCCNC(=N)N)C(=O)N[C@@H](CC(C)C)C(=O)N2 [Peptide 10] (Ac-[d2Nal][dPhe(4-Cl)][d3Pal]DD[dR]L[Orn]P[Dap]-NH2; lactam 4-10; linker 5-8 via F) |  | 6/6 | 0/4 |  |
| CC(=O)N[C@H](Cc1ccc2ccccc2c1)C(=O)N[C@H](Cc1ccc(Cl)cc1)C(=O)N[C@H](Cc1cccnc1)C(=O)N[C@H]1CC(=O)NC[C@@H](C(N)=O)NC(=O)[C@@H]2CCCN2C(=O)[C@@H]2CCCNC(=O)[C@H](Cc3ccccc3)NC(=O)CC[C@H](NC1=O)C(=O)N[C@H](CCCNC(=N)N)C(=O)N[C@@H](CC(C)C)C(=O)N2 [Peptide 8] (Ac-[d2Nal][dPhe(4-Cl)][d3Pal]DE[dR]L[Orn]P[Dap]-NH2; lactam 4-10; linker 5-8 via F) | 5/5 |  |  | Rats Ovulating (dosage 25 micrograms per rat): 0/8 |
